The results in this text go back to patent publication US20070184080A1, “Post harvest treatment of crops” (AstraZeneca UK Ltd, priority 2002, published 2007).

The test system of the assay is Colletotrichum musae. The assay is described as follows: Field test on inoculated banana hands: severity and incidence of molds and rots after 21 days storage. It is filed as in vivo. The following applies: 14 Degrees C., 90% RH. From the text: As set forth below, two sample formulations, Formula “C” and Formula “F”, containing paraffin wax, microcrystalline wax, and polybutylene (synthetic butyl rubber) were field tested in a tropical commercial banana operation. The test was designed to test the wax fungicide alternative, “the invention”, versus untreated placebo fruit and identical fruit treated with commercial fungicides. The inoculants were a highly concentrated aqueous Colletotrichum musae spore solution that is grossly more concentrated than actual field processing conditions. […] The test methodology included with four main test groups, each containing a statistically significant number of banana hands (clusters) to compare the relative infestation incidence rate of: • a.) Untreated inoculated fruit. • b.) Modified-wax treated inoculated fruit.—Two Formulas, C and F • c.) Fungicide treated inoculated fruit. • 1.) All of the fruit was inoculated with an aqueous suspension of 20,000 spores per milliliter of Colletotrichum by immersion in said suspension for a minimum of one minute. • 2.) The Formula C and F wax treated fruit was processed by dipping the wet crown of the inoculated banana hands into the molten wax, cooling for one minute, and re-dipping in the molten wax. • 3.) The Fungicide treated fruit was immersed into an aqueous solution of Thiabenzadole at the manufacturer's recommended dosage. • 4. All of the fruit was packaged and stored in a laboratory warehouse for twenty-one days at a temperature of 14 Degrees C. and ninety percent relative humidity. An empirical visual grading scale was employed to record and measure test results for a.) The presence or absence of rots and molds.; and b.) The severity of infestation. Latex staining was also observed and recorded. A visual infestation severity scale of one to five (1-5) was created where: 1=clean crown, and 5=severely rotten crown. After incubation, the banana producer's trained laboratory technicians graded the fruit and the aggregate results were compiled as presented below.

With `c1ccc2[nH]c(-c3cscn3)nc2c1` [Thiabenzadole], where the note is “Procedure I = Inoculated (20,000 spores/ml Colletotrichum), 1=clean crown, 5=severely rotten crown”, the “Severity Crown Mold” value is 3.7 Scale 1-5. Also, under “Procedure I = Inoculated”, the “INCIDENCE Crown Mold” value was 92.2%, the “INCIDENCE Crown Rot” value is on record as 100%, the “INCIDENCE Neck Rot” value is 27.2% and the “INCIDENCE Peel Rot” value stood at 84%. Besides, under “Procedure I = Inoculated, 1=clean crown, 5=severely rotten crown”, the “Severity Crown Rot” value came to 3.92 Scale 1-5.
